Source: patent publication US6653460B1 (priority 1996, dated 2003)

Legend:
[1] = tested on: calcium current (carried by barium) in neurohypophysial terminals; format: cell-based, rat
[2] = target: T1, class E calcium channels (192C cells) (Homo sapiens, UniProt Q15878); format: cell-based
T1 construct: expressed in transfected cells; host or cells: HEK 293 (192C cells)
T1 sequence (Q15878 whole entry): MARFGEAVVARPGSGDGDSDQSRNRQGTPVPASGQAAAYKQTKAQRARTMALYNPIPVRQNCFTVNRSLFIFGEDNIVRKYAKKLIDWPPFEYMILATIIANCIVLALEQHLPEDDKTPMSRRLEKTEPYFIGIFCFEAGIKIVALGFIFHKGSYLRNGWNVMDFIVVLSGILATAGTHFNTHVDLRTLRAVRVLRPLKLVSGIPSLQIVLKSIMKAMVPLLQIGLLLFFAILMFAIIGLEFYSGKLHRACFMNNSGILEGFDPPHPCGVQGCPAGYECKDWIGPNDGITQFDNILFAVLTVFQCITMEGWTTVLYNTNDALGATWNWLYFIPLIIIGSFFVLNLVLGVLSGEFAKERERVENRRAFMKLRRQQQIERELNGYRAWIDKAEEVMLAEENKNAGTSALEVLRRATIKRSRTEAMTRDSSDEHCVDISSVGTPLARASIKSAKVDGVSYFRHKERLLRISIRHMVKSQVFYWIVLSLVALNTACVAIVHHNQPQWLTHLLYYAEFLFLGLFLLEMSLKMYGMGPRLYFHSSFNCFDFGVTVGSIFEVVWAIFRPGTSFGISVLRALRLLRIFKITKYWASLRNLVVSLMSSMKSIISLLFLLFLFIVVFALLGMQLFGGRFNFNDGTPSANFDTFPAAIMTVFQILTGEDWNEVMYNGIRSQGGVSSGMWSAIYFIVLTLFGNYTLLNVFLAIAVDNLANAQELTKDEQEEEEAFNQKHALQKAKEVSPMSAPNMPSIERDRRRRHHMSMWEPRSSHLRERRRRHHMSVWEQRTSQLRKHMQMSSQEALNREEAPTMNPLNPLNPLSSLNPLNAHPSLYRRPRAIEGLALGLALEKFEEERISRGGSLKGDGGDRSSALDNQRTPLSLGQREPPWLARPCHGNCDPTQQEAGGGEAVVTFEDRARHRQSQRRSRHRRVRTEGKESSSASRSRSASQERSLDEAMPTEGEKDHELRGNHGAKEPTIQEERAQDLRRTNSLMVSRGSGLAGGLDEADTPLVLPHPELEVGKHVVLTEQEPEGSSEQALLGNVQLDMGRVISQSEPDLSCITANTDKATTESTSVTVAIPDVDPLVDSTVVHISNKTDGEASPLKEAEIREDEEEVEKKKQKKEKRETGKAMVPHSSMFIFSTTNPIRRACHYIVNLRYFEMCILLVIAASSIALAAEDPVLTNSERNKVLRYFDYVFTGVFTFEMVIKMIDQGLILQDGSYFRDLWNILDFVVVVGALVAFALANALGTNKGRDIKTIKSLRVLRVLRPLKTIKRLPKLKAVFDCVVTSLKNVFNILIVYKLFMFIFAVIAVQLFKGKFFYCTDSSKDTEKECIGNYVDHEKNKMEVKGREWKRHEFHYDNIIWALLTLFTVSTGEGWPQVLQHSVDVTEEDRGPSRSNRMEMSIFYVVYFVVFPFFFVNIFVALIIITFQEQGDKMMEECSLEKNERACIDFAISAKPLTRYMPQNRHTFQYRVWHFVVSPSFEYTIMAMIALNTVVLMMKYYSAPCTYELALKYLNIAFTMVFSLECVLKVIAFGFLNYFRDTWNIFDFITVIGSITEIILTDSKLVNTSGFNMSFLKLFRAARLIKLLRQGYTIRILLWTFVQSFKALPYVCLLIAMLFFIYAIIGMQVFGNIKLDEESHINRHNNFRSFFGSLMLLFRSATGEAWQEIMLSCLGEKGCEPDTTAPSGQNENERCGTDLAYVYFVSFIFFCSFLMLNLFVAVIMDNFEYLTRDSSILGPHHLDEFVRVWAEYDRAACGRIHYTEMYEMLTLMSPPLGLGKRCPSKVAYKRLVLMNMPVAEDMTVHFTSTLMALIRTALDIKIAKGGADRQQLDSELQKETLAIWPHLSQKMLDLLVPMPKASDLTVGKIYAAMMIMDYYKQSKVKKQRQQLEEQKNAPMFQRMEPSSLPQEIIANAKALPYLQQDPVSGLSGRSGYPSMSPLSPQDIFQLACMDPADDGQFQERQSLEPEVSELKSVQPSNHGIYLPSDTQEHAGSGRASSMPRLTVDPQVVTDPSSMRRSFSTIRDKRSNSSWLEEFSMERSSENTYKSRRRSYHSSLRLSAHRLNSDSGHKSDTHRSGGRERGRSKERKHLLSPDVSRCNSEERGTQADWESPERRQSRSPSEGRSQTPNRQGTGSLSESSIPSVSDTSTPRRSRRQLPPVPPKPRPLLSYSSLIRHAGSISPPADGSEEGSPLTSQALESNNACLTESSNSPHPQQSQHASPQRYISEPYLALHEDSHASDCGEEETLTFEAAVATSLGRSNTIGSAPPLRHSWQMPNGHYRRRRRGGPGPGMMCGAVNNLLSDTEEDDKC

## CSCC[C@@H]1NC(=O)[C@H](CC(C)C)NC(=O)[C@H](CCCNC(=N)N)NC(=O)[C@H](CO)NC(=O)[C@@H]2CSSC[C@@H]3NC(=O)[C@H](CO)NC(=O)CNC(=O)[C@H]([C@@H](C)O)NC(=O)[C@H](CSSC[C@H](N)C(=O)N[C@@H](CCCCN)C(=O)NCC(=O)N[C@@H](CCCCN)C(=O)NCC(=O)N[C@@H](C)C(=O)N[C@@H](CCCCN)C(=O)N2)NC(=O)[C@H](CSSC[C@@H](C(N)=O)NC(=O)[C@H](CCCCN)NC(=O)CNC(=O)[C@H](CO)NC(=O)[C@H](CCCNC(=N)N)NC3=O)NC(=O)[C@H](CC(=O)O)NC(=O)[C@H](Cc2ccc(O)cc2)NC1=O [SNX-111]
[1]
  block of current remaining after nicardipine: blocked part but not all of the remaining current
[2]
  sensitivity of depolarization evoked increase in internal calcium: resistant
